Paper PMC10353187, “Discovery of a new potent oxindole multi-kinase inhibitor among a series of designed 3-alkenyl-oxindoles with ancillary carbonic anhydrase inhibitory activity as antiproliferative agents” (BMC Chemistry, 2023)
Each block holds one molecule with its values, some of them ahead of it.

Experiments:
CAKI-1 = test: NCI-60 single-dose antiproliferative assay (SRB); assay type: cell-based; conditions: Homo sapiens; 10 μM single dose; CAKI-1, Renal cancer; read-out: Cell Growth inhibition Percent
Protocol: (§1) From the newly synthesized compounds, eleven compounds (4c, 4d, 5, 9a, 9b, 11a, 11b, 13b, 13c, 15b, and 15c) were selected by the National Cancer Institute (NCI) Developmental Therapeutics Program (DTP), Bethesda, Maryland, USA for the in vitro anti-proliferative activity evaluation. The selected compounds were examined at 10 μM dose against the NCI 60-cell line panel. This panel consists of nine cell line groups of leukemia, non-small cell lung carcinoma (NSCLC), melanoma, colon, CNS, ovarian, renal, prostate, and breast cancers. The results are reported as mean-graph of the percent growth relative to control and presented as percentage growth inhibition (GI%), furthermore, mean GI% of each compound over all panel cell lines was calculated (Table 1; Additional file 1; S3: In vitro biological activity).
(§2) From the newly synthesized compounds, eleven compounds were selected by the National Cancer Institute (NCI) Developmental Therapeutics Program (DTP), Bethesda, Maryland, USA for the in vitro anti-proliferative activity evaluation (For further details see supplementary materials).
(§3) NCI In-vitro Cancer Screening is a two-phase procedure that starts with the assessment of all compounds against the sixty NCI cell line panel depicting leukemia, NSCLC, CNS cancer, melanoma, prostate cancer, breast cancer, renal cancer, colon cancer and ovarian cancer cell lines at a single point of 10μM. The output from the single-dose screen is reportable as a mean graph.
(§4) The human tumor cell lines of the cancer screening panel were grown in RPMI 1640 medium containing 5% fetal bovine serum and 2 mM L-glutamine. For a typical screening experiment, cells were inoculated into 96 well microtiter plates in […] at plating densities ranging from 5000 to 40,000 cells/well depending on the doubling time of individual cell lines. After cell inoculation, the microtiter plates were incubated at 37 °C, 5% CO2, 95% air and 100% relative humidity for 24 h prior to addition of experimental drugs. After 24 h, two plates of each cell line were fixed in situ with trichloroacetic acid (TCA), to represent a measurement of the cell population for each cell line at the time of drug addition (Tz). Experimental drugs were solubilized in dimethyl sulfoxide at 400-fold the desired final maximum test concentration and stored frozen prior to use. At the time of drug addition, an aliquot of frozen concentrate was thawed and diluted to twice the desired final maximum test concentration with complete medium containing 50 µg/ml gentamicin. Aliquot of 100 µl of the drug dilution was added to the appropriate microtiter wells already containing 100 µl of medium, resulting in the required final drug concentration (10 µM). Triplicate wells were prepared for each individual dose. Following drug addition, the plates were incubated for an additional 48 h at 37 °C, 5% CO2, 95% air, and 100% relative humidity. For adherent cells, the assay was terminated by the addition of cold TCA. Cells were fixed in situ by the gentle addition of 50 µl of cold 50% (w/v) TCA (final concentration, 10% TCA) and incubated for 60 min at 4 °C. The supernatant was discarded, and the plates were washed five times with tap water and air dried. Sulforhodamine B (SRB) solution (100 µl) at 0.4% (w/v) in 1% acetic acid was added to each well, and plates were incubated for 10 min at room temperature. After staining, unbound dye was removed by washing five times with 1% acetic acid and the plates were air dried. Bound stain was subsequently solubilized with 10 mM trizma base, and the absorbance was read on an automated plate reader at a wavelength of 515 nm. For suspension cells, the methodology was the same except that the assay was terminated by fixing settled cells at the bottom of the wells by gently adding 50 µl of 80% TCA (final concentration, 16% TCA). […]

HOP-92 = test: NCI-60 single-dose antiproliferative assay (SRB); assay type: cell-based; conditions: Homo sapiens; 10 μM single dose; HOP-92, Non-small cell lung cancer; read-out: Cell Growth inhibition Percent
Protocol: as §1, §2, §3, §4

IGROV1 = test: NCI-60 single-dose antiproliferative assay (SRB); assay type: cell-based; conditions: Homo sapiens, IGROV-1; 10 μM single dose; IGROV1, Ovarian Cancer; read-out: Cell Growth inhibition Percent
Protocol: as §1, §2, §3, §4

KM12 = test: NCI-60 single-dose antiproliferative assay (SRB); assay type: cell-based; conditions: Homo sapiens; 10 μM single dose; KM12, Colon cancer; read-out: Cell Growth inhibition Percent
Protocol: as §1, §2, §3, §4

LOX IMVI = test: NCI-60 single-dose antiproliferative assay (SRB); assay type: cell-based; conditions: Homo sapiens, 10 μM single dose, Melanoma, read-out: Cell Growth inhibition Percent
Protocol: as §1, §2, §3, §4

MDA-MB-231/ATCC = test: NCI-60 single-dose antiproliferative assay (SRB); assay type: cell-based; conditions: Homo sapiens, 10 μM single dose, Breast cancer, read-out: Cell Growth inhibition Percent
Protocol: as §1, §2, §3, §4

NCI-H226 = test: NCI-60 single-dose antiproliferative assay (SRB); assay type: cell-based; conditions: Homo sapiens; 10 μM single dose; NCI-H226, Non-small cell lung cancer; read-out: Cell Growth inhibition Percent
Protocol: as §1, §2, §3, §4

NCI-H23 = test: NCI-60 single-dose antiproliferative assay (SRB); assay type: cell-based; conditions: Homo sapiens; 10 μM single dose; NCI-H23, Non-small cell lung cancer; read-out: Cell Growth inhibition Percent
Protocol: as §1, §2, §3, §4

OVCAR-4 = test: NCI-60 single-dose antiproliferative assay (SRB); assay type: cell-based; conditions: Homo sapiens; 10 μM single dose; OVCAR-4, Ovarian Cancer; read-out: Cell Growth inhibition Percent
Protocol: as §1, §2, §3, §4

PC-3 = test: NCI-60 single-dose antiproliferative assay (SRB); assay type: cell-based; conditions: Homo sapiens; 10 μM single dose; PC-3, Prostate cancer; read-out: Cell Growth inhibition Percent
Protocol: as §1, §2, §3, §4

SK-MEL-5 = test: NCI-60 single-dose antiproliferative assay (SRB); assay type: cell-based; conditions: Homo sapiens; 10 μM single dose; SK-MEL-5, Melanoma; read-out: Cell Growth inhibition Percent
Protocol: as §1, §2, §3, §4

NCI 60 cancer cell lines = test: NCI-60 single-dose antiproliferative assay, mean over panel; assay type: cell-based; conditions: Homo sapiens; 10 μM single dose; mean over all NCI panel cell lines; read-out: MEAN % Growth inhibition
Protocol: as §1, §2, §3, §4

hCA I = hCA I (Homo sapiens, UniProt P00915); test: Stopped flow CO2 hydrase assay
Chain of hCA I (P00915 whole entry): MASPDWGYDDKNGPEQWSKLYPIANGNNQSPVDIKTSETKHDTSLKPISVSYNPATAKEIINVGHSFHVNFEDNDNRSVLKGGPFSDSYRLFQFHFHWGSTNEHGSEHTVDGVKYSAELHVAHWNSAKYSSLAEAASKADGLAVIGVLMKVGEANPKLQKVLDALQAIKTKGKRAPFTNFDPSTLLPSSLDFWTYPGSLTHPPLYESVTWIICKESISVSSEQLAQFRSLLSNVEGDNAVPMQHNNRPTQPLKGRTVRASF

hCA XII = hCA XII (Homo sapiens, UniProt O43570); test: Stopped flow CO2 hydrase assay; conditions: for Selectivity ratio I/XII: Ki hCA I / Ki hCA XII; for Selectivity ratio II/XII: Ki hCA II / Ki hCA XII
Chain of hCA XII (O43570 25-354): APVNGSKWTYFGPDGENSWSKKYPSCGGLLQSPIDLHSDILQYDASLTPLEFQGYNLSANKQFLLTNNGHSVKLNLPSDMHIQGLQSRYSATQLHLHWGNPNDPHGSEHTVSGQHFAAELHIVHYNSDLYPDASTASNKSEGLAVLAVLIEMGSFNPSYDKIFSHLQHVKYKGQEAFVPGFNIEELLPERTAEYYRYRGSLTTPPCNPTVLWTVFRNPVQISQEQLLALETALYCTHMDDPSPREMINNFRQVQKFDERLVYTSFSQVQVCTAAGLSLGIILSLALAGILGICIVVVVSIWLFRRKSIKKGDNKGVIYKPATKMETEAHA

ACHN = test: NCI-60 single-dose antiproliferative assay (SRB); assay type: cell-based; conditions: Homo sapiens, 10 μM single dose, Renal cancer, read-out: Cell Growth inhibition Percent
Protocol: as §1, §2, §3, §4

M14 = test: NCI-60 single-dose antiproliferative assay (SRB); assay type: cell-based; conditions: Homo sapiens; 10 μM single dose; M14, Melanoma; read-out: Cell Growth inhibition Percent
Protocol: as §1, §2, §3, §4

SNB-75 = test: NCI-60 single-dose antiproliferative assay (SRB); assay type: cell-based; conditions: Homo sapiens; 10 μM single dose; SNB-75, CNS cancer; read-out: Cell Growth inhibition Percent
Protocol: as §1, §2, §3, §4

Structure (SMILES): O=C1Nc2ccccc2C1=CNc1ccc(C(=O)C=CNc2nccs2)cc1 [Compound 13c, 3-{[(4-{3-[Thiazol-2-ylamino]acryloyl}phenyl)amino]methylene}indolin-2-one]
inhibition at 10 µM (CAKI-1): 30.8%
inhibition at 10 µM (HOP-92): 11.4%
inhibition at 10 µM (IGROV1): 5.94%
inhibition at 10 µM (KM12): 59%
inhibition at 10 µM (LOX IMVI): 9.06%
inhibition at 10 µM (MDA-MB-231/ATCC): 10.7%
inhibition at 10 µM (NCI-H226): 1.09%
inhibition at 10 µM (NCI-H23): 25.9%
inhibition at 10 µM (OVCAR-4): 3.49%
inhibition at 10 µM (PC-3): 15.3%
inhibition at 10 µM (SK-MEL-5): 5.29%
inhibition at 10 µM (NCI 60 cancer cell lines): 3.28%
melting point: 260 to 262 °C
Ki (hCA I): > 10 µM
Ki (hCA XII): > 10 µM

Structure (SMILES): O=C1Nc2ccccc2C1=CNc1ccc(CNc2ccc(S(=O)(=O)Nc3ncccn3)cc2)cc1 [Compound 11b, 4-{[4-({[2-Oxoindolin-3-ylidene]methyl}amino)benzyl]amino}-N-(pyrimidin-2-yl)benzenesulfonamide]
inhibition at 10 µM (ACHN): 16.7%
inhibition at 10 µM (CAKI-1): 48.4%
inhibition at 10 µM (HOP-92): 15.4%
inhibition at 10 µM (IGROV1): 23.5%
inhibition at 10 µM (KM12): 77.3%
inhibition at 10 µM (LOX IMVI): 8.3%
inhibition at 10 µM (M14): 0.4%
inhibition at 10 µM (MDA-MB-231/ATCC): 8.34%
inhibition at 10 µM (NCI-H226): 16.8%
inhibition at 10 µM (NCI-H23): 17.4%
inhibition at 10 µM (OVCAR-4): 11.5%
inhibition at 10 µM (PC-3): 14.2%
inhibition at 10 µM (SK-MEL-5): 15.2%
inhibition at 10 µM (SNB-75): 16.6%
inhibition at 10 µM (NCI 60 cancer cell lines): 7.38%
Ki (hCA I): 9.11 µM
Ki (hCA XII): 8.57 µM
Selectivity ratio I/XII (hCA XII): 1.06
Selectivity ratio II/XII (hCA XII): 0.31

Structure (SMILES): O=C(Nc1ccc(NC=C2C(=O)Nc3ccccc32)cc1)Nc1nccs1 [Compound 15c, 1-{4-[((2-Oxoindolin-3-ylidene)methyl)amino]phenyl}-3-(thiazol-2-yl)urea]
inhibition at 10 µM (ACHN): 59.3%
inhibition at 10 µM (CAKI-1): 67.1%
inhibition at 10 µM (HOP-92): 50.2%
inhibition at 10 µM (IGROV1): 70.5%
inhibition at 10 µM (KM12): 40.8%
inhibition at 10 µM (LOX IMVI): 64.9%
inhibition at 10 µM (M14): 81.5%
inhibition at 10 µM (MDA-MB-231/ATCC): 52%
inhibition at 10 µM (NCI-H226): 70%
inhibition at 10 µM (NCI-H23): 62.2%
inhibition at 10 µM (OVCAR-4): 59.4%
inhibition at 10 µM (PC-3): 31.4%
inhibition at 10 µM (SK-MEL-5): 73.2%
inhibition at 10 µM (SNB-75): 66.6%
inhibition at 10 µM (NCI 60 cancer cell lines): 61.8%
Ki (hCA I): > 10 µM
Ki (hCA XII): > 10 µM

The next molecules have a lower Ki (hCA I) than those just listed; values first:

melting point: 158 to 160 °C
Ki (hCA I): 6.35 µM
Ki (hCA XII): 0.0424 µM
Selectivity ratio I/XII (hCA XII): 149.65
Selectivity ratio II/XII (hCA XII): 21.54
Structure (SMILES): NS(=O)(=O)N/C=C1/C(=O)Nc2ccccc21 [Compound 5, 3-(sulfamidmethylene)indoline-2-one]
inhibition at 10 µM (ACHN): 10.9%
inhibition at 10 µM (CAKI-1): 11.2%
inhibition at 10 µM (HOP-92): 11%
inhibition at 10 µM (IGROV1): 18.6%
inhibition at 10 µM (KM12): 1.51%
inhibition at 10 µM (M14): 2.01%
inhibition at 10 µM (MDA-MB-231/ATCC): 5.14%
inhibition at 10 µM (NCI-H226): 8.23%
inhibition at 10 µM (NCI-H23): 13.3%
inhibition at 10 µM (PC-3): 5.36%
inhibition at 10 µM (SK-MEL-5): 1.04%
inhibition at 10 µM (SNB-75): 16.5%

melting point: 210 to 216 °C
Ki (hCA I): 0.0084 µM
Ki (hCA XII): 0.0087 µM
Selectivity ratio I/XII (hCA XII): 0.966
Selectivity ratio II/XII (hCA XII): 0.448
Structure (SMILES): NS(=O)(=O)c1nnc(NC=C2C(=O)Nc3ccccc32)s1 [Compound 4d, 5-{[(2-Oxoindolin-3-ylidene)methyl]amino}-1,3,4-thiadiazole-2-sulfonamide]
inhibition at 10 µM (ACHN): 6.28%
inhibition at 10 µM (CAKI-1): 13.5%
inhibition at 10 µM (HOP-92): 11.9%
inhibition at 10 µM (IGROV1): 23.5%
inhibition at 10 µM (KM12): 4.63%
inhibition at 10 µM (M14): 6.04%
inhibition at 10 µM (MDA-MB-231/ATCC): 7.66%
inhibition at 10 µM (NCI-H226): 4.95%
inhibition at 10 µM (NCI-H23): 3.7%
inhibition at 10 µM (OVCAR-4): 1.55%
inhibition at 10 µM (PC-3): 10.7%
inhibition at 10 µM (SK-MEL-5): 1.52%
inhibition at 10 µM (SNB-75): 18.8%

melting point: 195 to 200 °C
Ki (hCA I): 0.321 µM
Ki (hCA XII): 0.0786 µM
Selectivity ratio I/XII (hCA XII): 4.08
Selectivity ratio II/XII (hCA XII): 9.50
Structure (SMILES): NS(=O)(=O)c1ccc(NCc2ccc(NC=C3C(=O)Nc4ccccc43)cc2)cc1 [Compound 11a, 4-{[4-({[2-Oxoindolin-3-ylidene]methyl}amino)benzyl]amino}benzenesulfonamide]
inhibition at 10 µM (ACHN): 7.22%
inhibition at 10 µM (CAKI-1): 34.7%
inhibition at 10 µM (IGROV1): 32.7%
inhibition at 10 µM (KM12): 13.9%
inhibition at 10 µM (LOX IMVI): 3.3%
inhibition at 10 µM (MDA-MB-231/ATCC): 16.5%
inhibition at 10 µM (NCI-H226): 19.1%
inhibition at 10 µM (NCI-H23): 12%
inhibition at 10 µM (OVCAR-4): 12.6%
inhibition at 10 µM (PC-3): 7.36%
inhibition at 10 µM (SK-MEL-5): 5.94%
inhibition at 10 µM (SNB-75): 32.8%
inhibition at 10 µM (NCI 60 cancer cell lines): 2.58%
